Reference: patent US20090130194A1, “Methods of Treating Cancer with High Potency Lipid-Based Platinum Compound Formulations Administered Intravenously” (Transave, Inc., priority 2005, published 2009)

What was measured:
[1] = Pharmacokinetics and organ distribution of ip and iv injected L-CDDP and CDDP (platinum by ICP-MS); format: in vivo, ICR mice; details: 8 mg/kg
Experimental: Pharmacokinetics and organ distribution in animals of ip and iv injected lipid-complexed cisplatin and cisplatin (Part II). Sixty ICR mice (female, 7 weeks old) were divided into 4 groups. They received intraperitoneal or intravenous injection of L-CDDP or CDDP, separately. The dose was 12 mg/kg for ip L-CDDP and 8 mg/kg for the rest of treatment groups. At each designed time point, three to four mice were anaesthetized with 70 mg/kg of Nembutal ip (e.g., 3, 20, and 40 min, and 2, 8, 24, 48, and 72 h). […] Organs including liver, lung, and spleen were resected from the mice. The organ samples were homogenized in distilled water (4-fold of the sample weight) and digested with nitric acid. The platinum concentration in each sample was measured by Inductively Coupled Plasma-Mass Spectrometer (ICP-MS). The pharmacokinetics profiles (FIGS. 4, 5, and 6, all Y-axes are concentration of μg platinum in one gram of tissue or fluid per mg of injected dose) and parameters (Table 2) of each formulation were simulated and calculated.

[2] = Nephrotoxicity: blood urea nitrogen (BUN); format: in vivo; details: MTD
Excerpt: Nephrotoxicity. ICR mice, 7 weeks old, female, were divided into 4 groups with 3 to 4 mice in each. […] Four days after the injection, the mice were euthanized with Nembutal ip. The blood was drawn and the serum was isolated. The blood urea nitrogen (BUN) was quantitatively measured with a calorimetric method at Antech Diagnostics. Organs including duodenum, heart, kidney, liver, lung, and spleen were resected from the mice and fixed with 10% buffered Formalin. The fixed tissues were processed with standard procedure for H and E staining. A pathology expert Dr. Carman Tornos at the Memorial Sloan-Kettering Cancer Center examined kidney tissues and gave a toxicity grade to each kidney tissue sample. The grading was based on the general pathology guidelines for kidney toxicity.

## N.N.[Cl][Pt][Cl] [CDDP, cis diamminedichloroplatinum]
[1]
  AUC, Liver: 19.96 µg·h/g/µg
  AUC, Lung: 5.58 µg·h/g/µg
  AUC, Spleen: 8.11 µg·h/g/µg
  Cmax, Liver: 0.74 µg/g/µg
  Cmax, Lung: 0.28 µg/g/µg
[2]; either route
  BUN level change (in words): increase
[2]; ip, 4 days after injection, p=0.04
  BUN level increase compared with normal controls: 2.1 fold
